# Data reported in patent US20250017252A1, “Fatty acids for boostering ketogenic diet” (N.V. Nutricia, priority 2022, published 2025).
# “Also recorded” adds a separate entry of the source.
# Columns and labels:
# Format in all cases: cell-based
# [1] = test system: mouse liver cells (Hepa1-6 cell line); test: Ketone (β-hydroxybutyrate) production in mouse liver cells; conditions: for βHb production when combined with oleic acid vs OA alone: 1 μM to 10 μM test nutrient + 100 μM OA; for βHb production when combined with fatty acid blend (K-one) vs blend alone: 1 μM to 10 μM test nutrient + 100 μM fatty acid blend; for Ketone production in the absence of a ketogenic fat blend: 5 μM each, alone or in combination; for Effect of combining with fatty acid blend on βHb production vs sum of individual effects: with 100 μM K-one fatty acid blend; for Effect of combining with OA on βHb production vs sum of individual effects: 1 μM to 10 μM + 100 μM OA; for βHb production, provided alone: test nutrient alone at 1 μM, 5 μM and 10 μM, no OA or fat blend, 6 hours
# Description: An assay to measure ketone production in mouse liver cells (Hepa1-6 cell line) was used wherein cells were first grown to a monolayer (growth phase), then exposed to starvation to deplete cellular lipid stores and subsequently brought into a ketogenic phase wherein cells were cultured in presence of oleic acid or a ketogenic diet fat blend with or without the presence of one of C2 fatty acid, C4 fatty acid, C6 fatty acid, citric acid and nicotinamide riboside. The ketone body production was subsequently determined by measurement of beta-hydroxybutyrate in the cell culture medium according to the details set out below:
# Starvation phase: At the end of the growth phase the cells formed a monolayer. The medium was exchanged for DMEM containing 1 mM glucose and antibiotics (1% penicillin & streptomycin) but no FBS. The medium was further supplemented with L-carnitine (a required co-factor for the uptake of fatty acids into the mitochondria, where fatty acids are turned into ketones). The cells were incubated in this medium for 24 hours. During this time, the cells were vastly deprived of glucose, lipids and hormones contained in FBS, forcing them to consume and empty their lipid stores. […] Moreover, the starvation phase is thought to induce specific metabolic changes that maximize the production of ketones.
# Ketogenic phase: At the end of the starvation phase, the medium was exchanged for Krebs-Henseleit buffer (KHB) supplemented with the L-carnitine and the test nutrients (table 1, single fatty acids C2, C4, C6 and citrate, nicotinamide riboside in combination with oleic acid fatty acid blend).
# The fatty acid blend has a similar fatty acid composition as the one used in a ketogenic diet (K-one). The content of every fatty acid in the blend is given as the molar ratio to Oleic acid (OA), whose molar content is set to 1. Dilutions of this blend were used to determine the dose response curve in FIGS. 1B and 1D. C2 and C4 are not included in the blend.
# KHB is composed of salts and bicarbonate as a chemical buffer to maintain the osmotic pressure and acidity (pH) at physiological levels. Medium and long chain fatty acids are coupled to bovine serum albumin prior to the assay to make them soluble in KHB and allow their efficient uptake by the cells. The coupling is physiological since in humans, medium and long chain fatty acids are normally coupled to albumin for transport in the blood circulation. Short chain fatty acids (C2, C4) were not coupled to albumin in the assay as they are water-soluble and circulate freely in humans. The cells were incubated for 6 hours at 37° C. During this time they produce ketones from the test nutrients with little to no interference from other nutrients and secrete β-hydroxybutyrate (β) into the medium.
# β-Hb measurements: At the end of the ketogenic phase, the whole medium was collected and dried by vacuum centrifugation for 20 hours at 21° C. The dry pellet was resuspended in a small volume of assay buffer to yield a 10-20-fold higher β-Hb concentration than in the medium. The samples were deproteinized using spin columns to measure the free unbound fraction of β-Hb. […] The Fluorescence was measured on a fluorescence microplate reader and is directly proportional to the β-Hb concentration in the sample within a range of 0.1 μM to 50 μM β-Hb.
# [2] = test system: NAD+ depleted mouse liver cells; test: Ketone production of NAD+ depleted liver cells after NR replenishment; conditions: NR 10 μM, 150 μM and 1000 μM
# Description: To measure the impact of replenishing NAD+ in liver cells with NR on ketone production, mouse liver cells were nutrient-deprived in medium containing low (1 mM) glucose, no fetal bovine serum, and no NAD+ precursors in the form of vitamin B3 (Niacin, NA, NAM) or Trp, but supplemented with L-carnitine.
# Concomitantly the cells were treated with FK866. These conditions created ketogenic diet like nutrient conditions and depleted the cells of NAD+ After 18 hours of incubation, FK866 was removed from the medium and a concentration range of NR was added for the replenishment of NAD+. After 24 hours, the cells were switched to Krebs-Henseleit buffer (KHB) containing L-carnitine and a concentration range (1 μM to 100 μM) of oleic acid, a long chain fatty acid, for 6 hours to induce and measure the production and secretion of b-hydroxybutyrate (βHB) into the medium.
# [3] = test system: NAD+ depleted mouse liver cells (Hepa1-6 cells); test: NAD+ replenishment of NAD+ depleted mouse liver cells under ketogenic diet-like conditions
# Description: A ketogenic diet treatment leads to great consumption of NAD+ and other metabolically relevant NAD+ derivatives such as NADP+ creating a state of NAD+ exhaustion. Therefore, it was hypothesized that nicotinamide riboside (NR) may replenish NAD+ and thus sustains ketone production more effectively in liver cells than other NAD+ precursors including nicotinamide (NAM), nicotinic acid (NA), Niacin (defined as the combination of NA and NAM) or the amino acid tryptophan (Trp). While NA and NAM have been commonly referred to as vitamin B3, NR is a recently discovered and naturally occurring vitamin B3 member. An assay was developed to measure NAD+ replenishment of NAD+ depleted mouse liver cells (Hepa1-6 cells) by NAD+ precursors under ketogenic diet-like conditions. In this assay, mouse liver cells were starved of glucose and depleted of NAD+ through incubation in a very low glucose (1 mM) medium free of vitamin B3, tryptophan (Trp) and FBS and supplemented with 10 nM of an NAD+ depleting drug called FK866. Thereafter, the cells were fed with NR or NAM or Niacin (combination of NAM and NA in a 1:1 molar ratio) or Trp to replenish NAD+. At the end of the supplementation phase, the cells were scraped and extracted using the NAD+ extraction buffer of the EnzyChrom™ NAD/NADH Assay Kit from BioAssay Systems. The NAD+ content of the cells was determined with the same kit following the manufacturer's manual. The NAD+ measurement is based on a lactate dehydrogenase reaction, in which NAD+ is reduced to NADH, which in turn reduces a formazan (MTT) reagent. The intensity of the reduced product colour, measured at 565 nm, is proportional to the NAD+ concentration in the sample. This assay is highly specific for NAD+ and has minimal interference (<1%) by NADP+ or NADPH.
compound,measurement,setting,value
"CCCCCC(=O)O [C6, caproic acid]",βHb production when combined with oleic acid vs OA alone,[1],potentiates the production of ketones
same,βHb production when combined with fatty acid blend (K-one) vs blend alone,[1],potentiates the production of ketones
same,Ketone production in the absence of a ketogenic fat blend,[1],hardly any ketones
same,Concentration above which the fatty acid starts to be turned into βHb (substrate),"[1]; dose-response curve 1 μM to 100 μM, alone",above 10 μM
same,Effect of combining with fatty acid blend on βHb production vs sum of individual effects,[1],more than additive
"O=C(O)CC(O)(CC(=O)O)C(=O)O [citrate, citric acid]",Increase of ketone production from the fat blend,[1]; citrate 200 μM to 1000 μM + 100 μM K-one fat blend,10-20%
same,"Ketone production, citrate alone","[1]; citrate alone, no fat blend",no ketones
same,Effect of combining with fatty acid blend on βHb production vs sum of individual effects,[1],clearly greater than the sum
"CC(=O)O [C2, ethanoic acid]",Effect of combining with OA on βHb production vs sum of individual effects,[1],more than additive
same,βHb production when combined with oleic acid vs OA alone,[1],more βHb than 100 μM OA alone
same,βHb production when combined with fatty acid blend (K-one) vs blend alone,[1],slightly greater production of βHb
same,"βHb production, provided alone",[1],virtually no bHB; also recorded: no βHb
same,Effect of combining with fatty acid blend on βHb production vs sum of individual effects,[1],more than additive
"NC(=O)c1ccc[n+]([C@@H]2O[C@H](CO)[C@@H](O)[C@H]2O)c1 [NR, nicotinamide riboside]",Top-level production of ketones,"[2]; NAD+ depleted cells, oleic acid 1 μM to 100 μM, 6 hours",increased the top-level production of ketones
same,NAD+ content,[2]; ketogenic diet like nutrient conditions,increased
same,NAD+ content replenishment,"[3]; NAD+ depleted cells, within 24 hours of treatment",dose-dependently replenishes NAD+ content to and above this baseline
same,Increase of NAD+ content vs equimolar NAM or Niacin,[3]; high concentrations of 1 mM,significantly greater extent than equimolar amounts of NAM or Niacin
same,Increase of NAD+ content vs equimolar Niacin,[3]; lower concentrations below 150 μM,greater extent than equimolar amounts of Niacin
"O=C(/C=C/c1cccnc1)NCCCCC1CCN(C(=O)c2ccccc2)CC1 [FK866, reference compound]",Depletion of NAD+ relative to baseline NAD+ content of untreated liver cells,[3]; 10 nM FK866,~70%
"CCCCCCCC/C=C\CCCCCCCC(=O)O [OA, oleic acid, reference compound]",Concentration at which top-level production of ketones is achieved,"[1]; dose-response curve, substrate alone",100 µM
"CCCC(=O)O [C4, butyric acid]",Effect of combining with OA on βHb production vs sum of individual effects,[1],more than additive
same,βHb production when combined with oleic acid vs OA alone,[1],more βHb than providing 100 μM OA alone
same,βHb production when combined with fatty acid blend (K-one) vs blend alone,[1],more βHb than providing the 100 μM fatty acid blend alone
same,Ketone production in the absence of a ketogenic fat blend,[1],hardly any ketones
same,Production of ketones from fatty acid blend concentration range,[1]; fixed 10 μM C4 + 1 μM to 100 μM fatty acid blend vs blend without C4,increasingly enhanced the production of ketones
same,"βHb production, provided alone",[1],hardly yielded any βHb; also recorded: no βHb
same,Effect of combining with fatty acid blend on βHb production vs sum of individual effects,[1],more than additive
